How the values were obtained:
[1] = Pharmacokinetic profile after intravenous and oral administration; type: in vivo; conditions: rat, IV 1 mg/kg, oral 5 mg/kg; for Cmax / Tmax / Vd / bioavailability: male, Sprague-Dawley, plasma
Procedure: The pharmacokinetic profile of Compound 1 was evaluated following intravenous and oral administration in rats. Sprague-Dawley male rats obtained from Charles River, San Diego, Calif. were acclimated for 24 hours.
Compounds of this invention were formulated at a concentration of 0.5 mg/mL for IV administration at a 1 mg/kg dose and 1 mg/mL for oral administration at a 5 mg/kg dose. All animals were weighed before dosing. The body weight was used to calculate the actual dose for each animal. The intravenous dose was administered through the jugular vein catheter in less than 1 minute. The oral dose volume was 1.5 mL for all PO rats administered through oral lavage.
For IV dosing, blood samples were collected using a pre-heparinized syringe via the carotid artery catheter before dosing and at t=2, 5, 15, 30, 60, 120, 180, 360, and 480 minutes post dosing. For PO dosing, blood samples were collected using a pre-heparinized syringe via the carotid artery catheter before dosing and at t=5, 15, 30, 60, 120, 180, 360, and 480 minutes post dosing. 250 uL of blood was obtained at each time point from each animal. Equal volumes of 0.9% normal saline were replaced to prevent dehydration. The whole blood samples were maintained on ice until centrifugation. Blood samples were centrifuged at 14,000 rpm for 10 minutes at 4° C., and the upper plasma layer was transferred into a clean vial and store at −80° C.

HsVR1 = target: T1, HsVR1 (Homo sapiens, UniProt Q8NER1); test: Two-electrode voltage clamp recording of capsaicin induced VR1 current in Xenopus oocytes; type: cell-based; conditions: 250 nM capsaicin induced current; Xenopus oocytes injected with HsVR1 RNA; read-out: EPHYS IC50
T1 construct: expressed in transfected cells; host or cells: Xenopus oocytes injected with HsVR1 RNA
T1 sequence (Q8NER1 whole entry): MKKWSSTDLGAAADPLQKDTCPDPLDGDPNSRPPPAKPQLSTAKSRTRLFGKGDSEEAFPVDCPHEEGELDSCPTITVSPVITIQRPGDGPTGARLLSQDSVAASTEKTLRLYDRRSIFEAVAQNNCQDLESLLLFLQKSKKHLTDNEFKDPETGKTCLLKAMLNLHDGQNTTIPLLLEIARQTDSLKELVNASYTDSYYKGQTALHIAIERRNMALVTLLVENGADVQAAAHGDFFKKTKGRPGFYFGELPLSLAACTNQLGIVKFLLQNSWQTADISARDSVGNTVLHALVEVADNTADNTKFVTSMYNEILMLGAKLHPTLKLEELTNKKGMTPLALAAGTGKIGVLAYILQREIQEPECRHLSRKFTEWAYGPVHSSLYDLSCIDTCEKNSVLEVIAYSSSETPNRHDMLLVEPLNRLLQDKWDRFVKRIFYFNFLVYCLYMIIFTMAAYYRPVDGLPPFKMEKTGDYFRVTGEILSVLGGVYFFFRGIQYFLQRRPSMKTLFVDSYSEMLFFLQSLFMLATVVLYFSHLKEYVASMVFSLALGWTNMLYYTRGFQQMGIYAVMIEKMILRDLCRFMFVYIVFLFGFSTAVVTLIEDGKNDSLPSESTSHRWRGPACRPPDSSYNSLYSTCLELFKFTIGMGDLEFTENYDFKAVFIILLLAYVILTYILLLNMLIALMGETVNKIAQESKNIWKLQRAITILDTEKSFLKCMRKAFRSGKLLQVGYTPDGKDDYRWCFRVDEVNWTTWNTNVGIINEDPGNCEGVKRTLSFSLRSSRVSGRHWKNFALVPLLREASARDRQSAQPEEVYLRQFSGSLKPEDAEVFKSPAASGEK
Procedure: Xenopus ovaries obtained from NASCO were isolated by enzymatic dissociation using collagenase (Worthington, 2 mg/ml). Oocytes were then individually injected with HsVR1 RNA (0.5 μg/μl). Injected oocytes are stored in standard oocyte incubation solution, ND96, containing 96 mM NaCl, 2 mM KCl, 1 mM MgCl2, 0.3 mM CaCl2 and 50 µg/ml Gentamicin at 16° C. Capsaicin induced VR1 current is observed in oocytes 4-5 days after injection. Eight oocytes are placed in the recording chambers. Each oocyte is impaled by 2 glass electrodes having resistances of 0.5 to 1 MOhm when filled with a 3 M KCl solution. Electrode advancement and oocyte impalement are under software control (OpusXpress 1.1, Axon Instruments). VR1 expression in the oocytes is verified using 250 nM capsaicin. Test solution delivery to the oocytes during the experiment is also under software control. The solutions are prepared in 96 well plates and robotically pipetted into the oocyte recording chambers by an 8 channel pipetter. Oocytes are exposed to several 250 μl applications of 250 nM capsaicin until a stable current amplitude is obtained with each application. A set of 96 well plates containing the test solutions is prepared so that the sequence of solution application to the oocyte is as follows: 250 μls of 250 nM capsaicin is followed by a several minute wash with standard oocyte saline. 1 ml of the test compound is then added at a particular test concentration, followed immediately by 250 μl of the compound at the same concentration plus 250 nM capsaicin. The capsaicin induced VR1 current is recorded in the presence and absence of test compound for each concentration. The standard test concentrations range from 0.3 to 2000 nM. Quantitative measurement of VR1 current block was carried out by calculating the area under the curve described by the inward current. The resulting numbers for capsaicin induced currents in the presence of increasing compound concentration are normalized to the maximum current obtained. These points are then plotted on a logarithmic scale and fitted by a Hill function. The IC50 values for each compound tested were then calculated from the resulting Hill fit. All compounds that inhibited capsaicin induced current greater than 50% were considered positives.

hVR1 = hVR1 (Homo sapiens, UniProt Q8NER1); test: Calcium imaging assay (Fura2) of VR1 antagonists, proton stimulation; type: cell-based; conditions: HEK 293 cells expressing hVR1; for % Inhibition @ 1 μM: calcium ion influx induced by proton stimulation (pH 5.7); for IC50: calcium ion influx induced by proton stimulation
Chain of hVR1 (Q8NER1 whole entry): as above
Method in brief: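 HEK293 cells expressing capsaicin-insensitive hVR1 were loaded with Fura2 (5 μg/mL, 37 °C, 40 min). Compound was added, then compound plus acid agonist (10 mM citric acid, pH 5.7), with the 340/380 nm ratio read every 4 s for 3 min. Peak-minus-baseline response gave % inhibition and an ID50 from dose-response curves.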

Row | Compound | Cmax [1] [ng/mL] | Tmax [1] [h] | Vd [1] [L/kg] | bioavailability [1] [%] | Cls (L/hrKg) [1] [L/hrKg] | T/2 [1] [h] | IC50 (HsVR1) [nM] | % Inhibition @ 1 μM (hVR1) | IC50 (hVR1) [nM]
1 | FC(F)(F)c1ccc(Nc2ncnc3c2CCN(c2ncccc2Cl)C3)cc1 [Example 1, 7-(3-Chloropyridin-2-yl)-N-(4-(trifluoromethyl)phenyl)-5,6,7,8-tetrahydropyrido[3,4-d]pyrimidin-4-amine] | 1380 | 1.01 | 1.28 | 37 | 0.34 | 2.52 | 101 to 500 | ++++ (compound exhibited 76% or greater inhibition of calcium ion influx induced by proton stimulation) | 101 to 500
2 | CS(=O)(=O)c1cccnc1N1CCc2c(ncnc2Nc2ccc(C(F)(F)F)cc2)C1 [Example 9, [7-(3-Methanesulfonyl-pyridin-2-yl)-5,6,7,8-tetrahydro-pyrido[3,4-d]pyrimidin-4-yl]-(4-trifluoromethyl-phenyl)-amine] | 156 | 1.67 | 13 | 47.9 | 1.99 | 4.37 | 101 to 500 | ++++ (compound exhibited 76% or greater inhibition of calcium ion influx induced by proton stimulation) | 101 to 500
3 | O=S(=O)(c1ccc(Nc2ncnc3c2CCN(c2ncccc2Cl)C3)cc1)C(F)(F)F [Example 22, 7-(3-Chloropyridin-2-yl)-N-(4-(trifluoromethylsulphonyl)phenyl)-5,6,7,8-tetrahydropyrido[3,4-d]pyrimidin-4-amine] | – | – | – | – | – | – | < 100 | ++++ (compound exhibited 76% or greater inhibition of calcium ion influx induced by proton stimulation) | < 100
4 | CS(=O)(=O)c1cccnc1N1CCc2c(ncnc2Nc2ccc(S(=O)(=O)C(F)(F)F)cc2)C1 [Example 23, 7-(3-Methanesulphonylpyridin-2-yl)-N-(4-(trifluoromethylsulphonyl)phenyl)-5,6,7,8-tetrahydropyrido[3,4-d]pyrimidin-4-amine] | – | – | – | – | – | – | 101 to 500 | ++++ (compound exhibited 76% or greater inhibition of calcium ion influx induced by proton stimulation) | 101 to 500
5 | CCOc1nc2c(c(Nc3ccc(C(F)(F)F)cc3)n1)CCN(c1ncccc1S(C)(=O)=O)C2 [Example 64, 2-Ethoxy-N-(4-(trifluoromethyl)phenyl)-5,6,7,8-tetrahydro-7-(3-(methylsulfonyl)pyridin-2-yl)pyrido[3,4-d]pyrimidin-4-amine] | – | – | – | – | – | – | 101 to 500 | +++ (compound exhibited 51-75% inhibition of calcium ion influx induced by proton stimulation) | 501 to 1000
6 | CC(C)(C)c1ccc(Nc2ncnc3c2CCN(c2ncccc2Cl)C3)cc1.Cl [Example 3, N-(4-tert-Butylphenyl)-7-(3-chloropyridin-2-yl)-5,6,7,8-tetrahydropyrido[3,4-d]pyrimidin-4-amine hydrochloride] | – | – | – | – | – | – | < 100 | ++++ (compound exhibited 76% or greater inhibition of calcium ion influx induced by proton stimulation) | < 100
7 | Cc1ccccc1N1CCc2c(ncnc2Nc2ccc(C(F)(F)F)cc2)C1 [Example 45, 7-(o-Tolyl)-N-(4-(trifluoromethyl)phenyl)-5,6,7,8-tetrahydropyrido[3,4-d]pyrimidin-4-amine] | – | – | – | – | – | – | < 100 | ++++ (compound exhibited 76% or greater inhibition of calcium ion influx induced by proton stimulation) | < 100
8 | CC(C)(C)c1ccc(Nc2ncnc3c2CCN(c2ncccc2S(C)(=O)=O)C3)cc1 [Example 8, (4-tert-Butyl-phenyl)-[7-(3-methanesulfonyl-pyridin-2-yl)-5,6,7,8-tetrahydro-pyrido[3,4-d]pyrimidin-4-yl]-amine] | – | – | – | – | – | – | 101 to 500 | ++++ (compound exhibited 76% or greater inhibition of calcium ion influx induced by proton stimulation) | 101 to 500
9 | CSc1nc2c(c(Nc3ccc(C(C)(C)C)cc3)n1)CCN(c1ncccc1Cl)C2 [Example 28, N-(4-tert-Butylphenyl)-7-(3-chloropyridin-2-yl)-5,6,7,8-tetrahydro-2-(methylthio)pyrido[3,4-d]pyrimidin-4-amine] | – | – | – | – | – | – | < 100 | ++++ (compound exhibited 76% or greater inhibition of calcium ion influx induced by proton stimulation) | < 100
10 | FC(F)(F)c1ccc(Nc2ncnc3c2CCN(c2ncccc2Cl)C3)cn1 [Example 20] | – | – | – | – | – | – | 101 to 500 | ++++ (compound exhibited 76% or greater inhibition of calcium ion influx induced by proton stimulation) | 101 to 500
11 | FC(F)(F)c1ccc(Nc2ncnc3c2CCN(c2ncccc2C(F)(F)F)C3)cc1 [Example 12, (4-Trifluoromethyl-phenyl)-[7-(3-trifluoromethyl-pyridin-2-yl)-5,6,7,8-tetrahydro-pyrido[3,4-d]pyrimidin-4-yl]-amine] | – | – | – | – | – | – | < 100 | ++++ (compound exhibited 76% or greater inhibition of calcium ion influx induced by proton stimulation) | 101 to 500
12 | FC(F)(F)c1ccc(Nc2nc(NCCN3CCOCC3)nc3c2CCN(c2ncccc2Cl)C3)cc1 [Example 33, 7-(3-Chloropyridin-2-yl)-N^4-(4-(trifluoromethyl)phenyl)-5,6,7,8-tetrahydro-N^2-(2-morpholinoethyl)pyrido[3,4-d]pyrimidine-2,4-diamine] | – | – | – | – | – | – | 501 to 1000 | + (compound exhibited 0-25% inhibition of calcium ion influx induced by proton stimulation) | –
13 | CCOc1nc2c(c(Nc3ccc(C(F)(F)F)cc3)n1)CCN(c1ncccc1Cl)C2 [Example 48, 7-(3-Chloropyridin-2-yl)-2-ethoxy-N-(4-(trifluoromethyl)phenyl)-5,6,7,8-tetrahydropyrido[3,4-d]pyrimidin-4-amine] | – | – | – | – | – | – | < 100 | ++++ (compound exhibited 76% or greater inhibition of calcium ion influx induced by proton stimulation) | 101 to 500
14 | N#Cc1nc2c(c(Nc3ccc(C(F)(F)F)cc3)n1)CCN(c1ncccc1Cl)C2 [Example 37, 4-(4-(Trifluoromethyl)phenylamino)-7-(3-chloropyridin-2-yl)-5,6,7,8-tetrahydropyrido[3,4-d]pyrimidine-2-carbonitrile] | 49.4 | 3.33 | 12.4 | 17.9 | 4.02 | 2.15 | 101 to 500 | ++++ (compound exhibited 76% or greater inhibition of calcium ion influx induced by proton stimulation) | –
15 | COCc1nc2c(c(Nc3ccc(C(F)(F)F)cc3)n1)CCN(c1ncccc1Cl)C2 [Example 35, 7-(3-Chloropyridin-2-yl)-N-(4-(trifluoromethyl)phenyl)-5,6,7,8-tetrahydro-2-(methoxymethyl)pyrido[3,4-d]pyrimidin-4-amine] | – | – | – | – | – | – | 101 to 500 | ++++ (compound exhibited 76% or greater inhibition of calcium ion influx induced by proton stimulation) | –
